Data on 1 compound can be found in patent publication US20230110676A1, “Method of Treating Diseases” (priority 2020, published 2023).

One test has as its system worm. The test is described as follows: Protective effect on MPP+ detrimental effect, worm survival rate. Particulars: 0.75 mM of MPTP plus 400 μM ergothioneine; ~50% without ergothioneine. It counts as in vivo. Here is the method:
However, ergothioneine can offer significant protection. The last column is the worm with no ergothioneine or MPTP treatment. The first column is the worm survival rate after treating with 0.75 mM of MPTP.

For the next test, the system named is worm Eat-2 mutant. The test is described as follows: Life-extension effect on caloric-restriction worm mutant. It counts as in vivo, C. elegans. The following applies: Eat-2 mutant (partial starvation). Here is the method:
(§1) To test the biological effect of ergothioneine, the first set of experiments was to test the toxicity level of ergothioneine on the worm model. In humans, ergothioneine is enriched up to 2 mM concentration in many parts of the body. […] At 150 μM, the lifespan of the wild type worm can be extended by 30-40% (FIG. 2A). Over the last two decades, there is numerous evidence supporting the life-extension effect by caloric restriction from various model systems (yeast, worm, fly, and mouse). Thus, the effect of ergothioneine on worm Eat-2 mutant was also examined.

The subject of another test is N2 worms. The test is described as follows: Protective effect under paraquat-induced oxidative stress. It counts as in vivo, C. elegans. Particulars: N2 worms treated with paraquat. Here is the method:
Encouraged by the clear life-extension effect on worm model under regular culture conditions in the above example, the protective effect of ergothioneine under stresses was examined. In the first experiment, the worm was treated with paraquat to induce oxidative stress. Under the paraquat-induced oxidative stress conditions, N2 worms' life span was decreased by nearly 50% (FIG. 2C vs. FIG. 2A).

The next test has as its system daf-16 mutant worm. Put plainly: Life-extension effect on daf-16 mutant worm. It counts as in vivo, C. elegans. From the text:
To address this issue, the large collection of C. elegans mutants in Caenorhabditis Genetics Center was again utilized in this example. Among the mutants examined, the daf-16 mutant results stood out (FIGS. 3A, 3B, and 3C). […] Among genes of the IIS pathway, daf-2 encodes an insulin-like receptor, and it is the starting point of the pathway that eventually leads to daf-16. Daf-16 is the hub, where information from several different pathways merge and then use to regulate many physiological processes. Worm daf-16 mutant has an average life-span that is […] the N2 worm (FIGS. 3A, 3B, and 3C).

For the next test, the system named is N2 C. elegans. The test is described as follows: Life-extension effect on worm under regular culture conditions. In kind it is in vivo.
From the text: In this example, the biological functions of ergothioneine were investigated using C. elegans as the model system. Using C. elegans as the model has several prominent advantages, including short life cycle, simple experimental manipulation, and rich collection of publicly available genetic mutants (e.g., Caenorhabditis Genetics Center). In addition, its genome comprises ⅔ of human disease-related genes.
as §1

Test [1] deals with a-Synuclein Overexpression Worm Model. Put plainly: Heat shock experiment in α-synuclein overexpression worm Parkinson's disease model. It counts as in vivo. The following applies: 1.6 mM, 3 hours without. Here is the method: FIGS. 13A and B show Protective Effect for Heat-shock for Both Wild-type and a-Synuclein Overexpression Worm Model (Parkinson's disease). Heat shock experiment. α-synuclein was expressed to create worm parkinson's disease model on worm. […] With 1.6 mM of ergothioneine, 50% survival time increased to 8 hours.

Another test deals with mouse. The test is described as follows: Open field experiment, physical activities of disease group at week #57. Particulars: mice, week #57, treated vs control disease group. It counts as in vivo. From the text: FIGS. 5A and 5B show the physical activities of untreated disease group and treated disease group at week #57 (open field experiment). A) Real time trace of mouse movement. […] B) Quantitative measurement of the distance each mouse moved during the testing period and the time they spent in the open area.

Test [2] has as its system MPTP Parkinson's disease mouse model. Put plainly: MPTP Parkinson's disease mouse model, latency test on rotatory plate/rod. It counts as in vivo. Particulars: mice, 20 mg/Kg MPTP for seven days; ergothioneine 10, 20 mg/kg co-injection or 40 mg/kg in water, 7 days. Here is the method: (§2) Parkinson mouse model was induced by 1-methyl-4-phenyl-1,2,3,6-tetrahydropyridine (MPTP), which induced toxicity to dopaminergic neurons (latency test). Behavior test was done by testing mouse behavior: how long can they hold on rotatory plate/rod. The longer they stay, the better their health conditions. After MPTP treatment, mice are clearly much weaker. […] Significance of difference was determined by unpaired two-tailed t-test. #P<0.05 compared with control, *P<0.05, **P<0.01, ****P<0.0001 compared with MPPP-treated control. 1) Latency test results of control group with no MPTP or ergothioneine; 2) Latency test results of mice treated with 20 mg/Kg of MPTP for seven days; 3) Latency test results of mice treated with 20 mg/Kg of MPTP and 10 mg/kg of ergothioneine (co-injection) for seven days; 4) Latency test results of mice treated with 20 mg/Kg of MPTP and 20 mg/kg of ergothioneine (co-injection) for seven days; 5) Latency test results of mice treated with 20 mg/Kg of MPTP and 40 mg/kg of ergothioneine in water for seven days.

In another test the test system is N2 worm. Put plainly: Protective effect under heat shock conditions. In kind it is in vivo, C. elegans. Particulars: N2 worm moved from 20° C. to 42° C.; a few hundred micromolar; 3 hours without. Here is the method:
Besides the oxidative stress, the protective effect of ergothioneine for the worm under heat shock conditions was also examined. After the worms were cultured multiple days, they were then moved from 20° C. to 42° C. Under such a heat-shock condition, 50% of the worm died within 3 hours. However, in the presence of a few hundred micromolar concentration of ergothioneine, it extends N2 worm's average survival time from 3 hours to nearly 8-9 hours (FIG. 2D).

The subject of test [3] is MPTP Parkinson's disease mouse model. The test is described as follows: MPTP Parkinson's disease mouse model, pole test. It counts as in vivo. Particulars: mice, 20 mg/Kg MPTP for seven days; ergothioneine 10, 20 mg/kg co-injection or 40 mg/kg in water, 7 days. On the procedure: as §2, with “by MPTP.” for “by 1-methyl-4-phenyl-1,2,3,6-tetrahydropyridine (MPTP), which induced toxicity to dopaminergic neurons (latency test).”, “long does it take for the mice to climb to the top of a rod. The shorter time” for “long can”, “they took,” for “they hold on rotatory plate/rod. The longer they stay,”, “health conditions are.” for “health conditions.”, “t-test. ###P<0.05” for “t-test. #P<0.05”, “control, ***P<0.001,” for “control, *P<0.05, **P<0.01,”

Each structure is given as a SMILES string.

For `C[N+](C)(C)[C@@H](Cc1c[nH]c(=S)[nH]1)C(=O)[O-]` [ergothioneine], the worm survival rate in the test on worm is approximately 90%. Besides, the “life extension of Eat-2 worm mutant” value in the test on worm Eat-2 mutant was “can further extend the life”. For the same compound, the “protective effect under oxidative stress” value with N2 worms was “clearly offers protective effects”. The “life-extension effect on daf-16 mutant” value with daf-16 mutant worm is listed as “the life-extension effect was abolished”. The life-extension effect result with N2 C. elegans (N2 C. elegans, concentrations as low as 50 μM) is “robust life-extension effect”. In the test with N2 C. elegans (wild type worm, 150 μM), the lifespan extension was 30-40%. In test [1], the “50% survival time under heat shock” value was determined as 8 h. Besides, the “physical activities in open field” value with mouse is “demonstrated much more activities”. Further, in [2], the “latency test (time held on rotatory plate/rod)” value is “mice are clearly protected from these detrimental effects”. In the test with N2 worm, the “average survival time under heat shock” value fell in the range of 8 to 9 h. In addition, the “pole test (time to climb to the top of a rod)” value in test [3] was “mice are clearly protected from these detrimental effects”.
